The source of these data is patent US20030133913A1, “Methods of maturing plasmacytoid dendritic cells using immune response modifier molecules” (3M Innovative Properties Company, priority 2001, published 2003).

The test system of the assay is plasmacytoid dendritic cells. In words: Enhanced survival of isolated pDCs, cell viability by flow cytometry. The class given is cell-based, human. Conditions: 48 hours after treatment with IRM (3 μM) versus without IRM; FIG. 4. The protocol:
Human pDCs were isolated from PBMC by immunomagnetic bead positive selection according to the manufacturer's instructions (Miltenyi Biotec, Inc., Auburn, Calif.). Briefly, PBMC were incubated with pDC-specific antibodies, BDCA-2 or BDCA-4, and the labeled cells were collected with a Miltenyi LS column. The positively selected cells were resuspended in X-Vivo 20 medium. Isolated pDCs were obtained as described in Example 2. The isolated pDCs were incubated in with and without IRM. Cell viability was measured in both cultures by flow cytometry after 24 hours and again after 48 hours. […] Pairwise comparisons of IRM-treated cells to the control group were performed using the Dunnett adjustment to preserve the overall 0.05 level of significance. If there were discrepancies between the 2 methods, the results from the arcsin transformed data were reported.
For orientation: Flow cytometry measures light scatter and fluorescence of single cells or particles in a stream.

As to `CCOCc1nc2c(N)nc3ccccc3c2n1CC(C)(C)O` [IRM, 4-amino-2-ethoxymethyl-α,α-dimethyl-1H-imidazo[4,5-c]quinoline-1-ethanol], the “pDC survival (percent viable)” value is “statistically significant higher rate of survival”.
